The numbers were not newly measured in patent publication US20230158080A1 ([…], LLC, priority 2021, published 2023), which cites them from elsewhere.

For one data set, the target named is androgen receptor (Homo sapiens, UniProt P10275). To be noted: stimulation of EPCs.
For the next data set, the system named is EPC. To be noted: different doses of R1881.
Data set [1] has as its system CD34+/F1k1+ and CD34+/VE-cadherin+ cells. The note with it: castrated rats after testosterone supplementation.

Chain of androgen receptor (P10275 whole entry): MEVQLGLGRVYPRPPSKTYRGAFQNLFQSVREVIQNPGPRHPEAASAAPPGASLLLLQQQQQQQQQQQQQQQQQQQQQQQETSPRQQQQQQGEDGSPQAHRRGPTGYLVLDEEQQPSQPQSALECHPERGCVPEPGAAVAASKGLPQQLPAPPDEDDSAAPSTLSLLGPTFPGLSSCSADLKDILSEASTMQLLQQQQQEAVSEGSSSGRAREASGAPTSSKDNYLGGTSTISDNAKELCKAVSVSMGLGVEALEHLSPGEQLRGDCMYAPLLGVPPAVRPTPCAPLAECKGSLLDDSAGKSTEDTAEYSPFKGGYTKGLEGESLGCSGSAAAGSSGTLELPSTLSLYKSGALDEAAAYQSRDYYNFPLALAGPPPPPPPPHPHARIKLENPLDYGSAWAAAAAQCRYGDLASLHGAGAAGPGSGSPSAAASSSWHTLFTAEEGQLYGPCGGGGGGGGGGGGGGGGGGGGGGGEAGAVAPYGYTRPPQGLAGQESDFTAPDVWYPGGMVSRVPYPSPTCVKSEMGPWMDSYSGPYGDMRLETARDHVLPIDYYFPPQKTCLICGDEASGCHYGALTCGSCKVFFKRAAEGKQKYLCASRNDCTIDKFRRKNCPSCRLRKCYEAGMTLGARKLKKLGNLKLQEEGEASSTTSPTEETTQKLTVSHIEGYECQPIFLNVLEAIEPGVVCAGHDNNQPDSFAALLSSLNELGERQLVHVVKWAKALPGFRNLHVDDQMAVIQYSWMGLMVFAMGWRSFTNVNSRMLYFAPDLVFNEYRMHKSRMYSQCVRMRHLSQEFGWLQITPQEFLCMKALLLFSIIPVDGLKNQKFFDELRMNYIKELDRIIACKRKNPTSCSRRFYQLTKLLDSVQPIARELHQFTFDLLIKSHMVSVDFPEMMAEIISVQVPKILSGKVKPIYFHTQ

`C[C@]1(O)CC[C@H]2[C@@H]3CCC4=CC(=O)CCC4=C3C=C[C@@]21C` [R1881, methyltrienolone]: at androgen receptor, the “androgen receptor translocation in the nucleus” value is recorded as “caused androgen receptor translocation in the nucleus”. Further, in the data set with EPC, the “EPC proliferation, migration and colony formation” value is given as “dose-dependent increase”. For `C[C@]12CC[C@H]3[C@@H](CCC4=CC(=O)CC[C@@]43C)[C@@H]1CC[C@@H]2O` [testosterone], the “percentage of EPC marker-positive cells in corpus cavernosum” value in data set [1] was “restored”.
